This experiment deals with T1, recombinant guanylate cyclase reporter cell line (Rattus norvegicus, UniProt P20595).
T1 construct: expressed in transfected cells
T1 sequence (P20595 1-619): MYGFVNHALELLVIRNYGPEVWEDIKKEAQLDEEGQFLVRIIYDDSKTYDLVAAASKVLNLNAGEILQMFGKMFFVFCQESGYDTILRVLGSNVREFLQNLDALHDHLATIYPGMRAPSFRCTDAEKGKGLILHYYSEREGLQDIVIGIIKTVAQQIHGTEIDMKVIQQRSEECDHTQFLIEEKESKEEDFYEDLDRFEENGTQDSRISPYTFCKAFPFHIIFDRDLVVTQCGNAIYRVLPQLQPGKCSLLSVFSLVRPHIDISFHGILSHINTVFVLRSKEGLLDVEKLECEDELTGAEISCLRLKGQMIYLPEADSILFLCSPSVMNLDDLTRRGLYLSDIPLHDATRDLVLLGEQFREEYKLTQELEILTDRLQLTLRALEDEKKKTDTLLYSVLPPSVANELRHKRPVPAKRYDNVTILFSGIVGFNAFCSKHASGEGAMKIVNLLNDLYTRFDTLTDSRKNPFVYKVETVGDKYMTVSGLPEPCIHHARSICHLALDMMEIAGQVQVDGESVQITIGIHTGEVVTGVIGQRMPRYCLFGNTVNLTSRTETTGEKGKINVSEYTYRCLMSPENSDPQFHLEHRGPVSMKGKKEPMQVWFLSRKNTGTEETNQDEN
T1 sequence (P19686 1-690 partner): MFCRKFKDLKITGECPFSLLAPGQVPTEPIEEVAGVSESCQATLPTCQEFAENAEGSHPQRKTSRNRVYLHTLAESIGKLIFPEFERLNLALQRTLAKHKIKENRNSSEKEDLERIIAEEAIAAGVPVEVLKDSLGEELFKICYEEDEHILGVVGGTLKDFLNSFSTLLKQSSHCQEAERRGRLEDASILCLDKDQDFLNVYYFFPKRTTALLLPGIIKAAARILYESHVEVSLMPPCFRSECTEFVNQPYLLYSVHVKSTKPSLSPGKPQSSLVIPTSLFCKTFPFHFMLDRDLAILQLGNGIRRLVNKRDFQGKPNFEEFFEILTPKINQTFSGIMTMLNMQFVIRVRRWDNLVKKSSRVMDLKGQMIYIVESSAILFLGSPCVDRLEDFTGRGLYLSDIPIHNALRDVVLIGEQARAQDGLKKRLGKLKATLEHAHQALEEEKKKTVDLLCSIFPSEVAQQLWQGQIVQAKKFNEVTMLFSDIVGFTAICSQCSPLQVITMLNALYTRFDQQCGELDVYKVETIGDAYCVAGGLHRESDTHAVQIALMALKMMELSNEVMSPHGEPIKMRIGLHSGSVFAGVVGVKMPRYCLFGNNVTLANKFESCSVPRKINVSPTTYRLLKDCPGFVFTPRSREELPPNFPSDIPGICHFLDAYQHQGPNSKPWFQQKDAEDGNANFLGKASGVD
Briefly: Effect on a recombinant guanylate cyclase reporter cell line. The format is cell-based. The note with it: for EC50: half maximal effective concentration; for MEC: minimum effective concentration. The procedure:
B-1. Effect on a Recombinant Guanylate Cyclase Reporter Cell Line
The cellular activity of the compounds according to the invention was determined using a recombinant guanylate cyclase reporter cell line, as described in F. Wunder et al., Anal. Biochem. 339, 104-112 (2005).

Structures can show the parent of a compound that is named as a salt.

Usually EC50 stands for the concentration giving half of the maximal effect. With `O=C(O)c1cnn(C2CCCN(c3cc(Cl)ccc3-c3ccc(N4CCN(CC5CC56CC6)CC4)cc3)C2)c1C(F)F` (mixture of isomers) [Example 41, 1-[1-[5-Chloro-2-[4-[4-(spiro[2.2]pentan-2-ylmethyl)piperazin-1-yl]phenyl]phenyl]-3-piperidyl]-5-(difluoromethyl)pyrazole-4-carboxylic acid hydrochloride (Diastereomeric mixture 2)], the EC50 was 8.3 nM and the MEC is listed as 1.0 nM.
As to `O=C(O)c1cnn(C2CCCN(c3cc(Cl)ccc3-c3cnc(N4CCN(CC5CC5)CC4)nc3)C2)c1C(F)F` (single isomer, unassigned; enantiomer 2) [Example 72, 1-[1-(5-Chloro-2-{2-[4-(cyclopropylmethyl)piperazin-1-yl]pyrimidin-5-yl}phenyl)piperidin-3-yl]-5-(difluoromethyl)-1H-pyrazole-4-carboxylic acid hydrochloride (Enantiomer 2)], the EC50 amounted to 18 nM and the MEC was 3.0 nM.
In the same order, the values of `O=C(O)c1cnn(C2CCCN(c3cc(Cl)ccc3-c3ccc(N4CCN(CC5CC5)CC4)cc3)C2)c1C(F)F` (single isomer, unassigned; enantiomer 1) [Example 10, 1-[1-{4-Chloro-4′-[4-(cyclopropylmethyl)piperazin-1-yl][1,1′-biphenyl]-2-yl}piperidin-3-yl]-5-(difluoromethyl)-1H-pyrazole-4-carboxylic acid hydrochloride (Enantiomer 1)] are 9.2 nM and 0.8 nM.
As to `CC(C)CN1CCN(c2ncc(-c3ccc(Cl)cc3N3CCCC(n4ncc(C(=O)O)c4C(F)F)C3)cn2)CC1` (single isomer, unassigned; enantiomer 2) [Example 70, 1-(1-{5-Chloro-2-[2-(4-isobutylpiperazin-1-yl)pyrimidin-5-yl]phenyl}piperidin-3-yl)-5-(difluoromethyl)-1H-pyrazole-4-carboxylic acid hydrochloride (Enantiomer 2)], the EC50 amounted to 21.5 nM and the MEC came to 3.0 nM.
In the same order, the values of `O=C(O)c1cnn(C2CCCN(c3cc(Cl)ccc3-c3ccc(N4CCN(CC5CC5(F)F)CC4)cc3)C2)c1C(F)F` (single isomer, unassigned; diastereomer 2) [Example 29, 1-{1-[4-Chloro-4′-(4-{[2,2-difluorocyclopropyl]methyl}piperazin-1-yl)[biphenyl]-2-yl]piperidin-3-yl}-5-(difluoromethyl)-1H-pyrazole-4-carboxylic acid hydrochloride (Diastereomer 2)] are 2 nM and 0.3 nM.
In the same order, the values of `CC(F)(F)CN1CCN(c2ccc(-c3ccc(Cl)cc3N3CCCC(n4ncc(C(=O)O)c4C(F)F)C3)cc2)CC1` (single isomer, unassigned; enantiomer 1) [Example 24, 1-(1-{4-Chloro-4′-[4-(2,2-difluoropropyl)piperazin-1-yl][biphenyl]-2-yl}piperidin-3-yl)-5-(difluoromethyl)-1H-pyrazole-4-carboxylic acid hydrochloride (Enantiomer 1)] are 1.8 nM and 0.3 nM.
On the same counts, the results for `CC(C)(C)CN1CCN(c2ccc(-c3ccc(Cl)cc3N3CCCC(n4ncc(C(=O)O)c4C(F)F)C3)cc2)CC1` (single isomer, unassigned; enantiomer 1) [Example 12, 1-[(1-{4-Chloro-4′-[4-(2,2-dimethylpropyl)piperazin-1-yl][biphenyl]-2-yl}piperidin-3-yl]-5-(difluoromethyl)-1H-pyrazole-4-carboxylic acid hydrochloride (Enantiomer 1)] are 61.5 nM and 10.0 nM.
In the case of `O=C(O)c1cnn(C2CCCN(c3cc(Cl)ccc3-c3ccc(N4CCN(C5COC5)CC4)cc3)C2)c1C(F)F` (single isomer, unassigned; enantiomer 1) [Example 42, 1-(1-{4-Chloro-4′-[4-(oxetan-3-yl)piperazin-1-yl][biphenyl]-2-yl}piperidin-3-yl)-5-(difluoromethyl)-1H-pyrazole-4-carboxylic acid hydrochloride (Enantiomer 1)], the EC50 is 71 nM and the MEC is 30.0 nM.
Take `O=C(O)c1cnn(C2CCCN(c3cc(Cl)ccc3-c3ccc(N4CCCC4)cc3)C2)c1C(F)F` (single isomer, unassigned; enantiomer 1) [Example 44, 1-{1-[4-Chloro-4′-(pyrrolidin-1-yl)[biphenyl]-2-yl]piperidin-3-yl}-5-(difluoromethyl)-1H-pyrazole-4-carboxylic acid (Enantiomer 1)]: the EC50 was found to be 45 nM and the MEC came out at 10.0 nM.
Turning to `CCN1CCN(c2ccc(-c3ccc(Cl)cc3N3CCCC(n4ncc(C(=O)O)c4C(F)F)C3)cn2)CC1` (single isomer, unassigned; enantiomer 2) [Example 60, 1-(1-{5-Chloro-2-[6-(4-ethylpiperazin-1-yl)pyridin-3-yl]phenyl}piperidin-3-yl)-5-(difluoromethyl)-1H-pyrazole-4-carboxylic acid hydrochloride (Enantiomer 2)], the EC50 is 70 nM and the MEC was determined as 30.0 nM.
On to `O=C(O)c1cnn(C2CCCN(c3cc(Cl)ccc3-c3ccc(N4CCN(CC5CC5)CC4)nc3)C2)c1C(F)F` (single isomer, unassigned; enantiomer 2) [Example 63, 1-[1-(5-Chloro-2-{6-[4-(cyclopropylmethyl)piperazin-1-yl]pyridin-3-yl}phenyl)piperidin-3-yl]-5-(difluoromethyl)-1H-pyrazole-4-carboxylic acid hydrochloride (Enantiomer 2)], for which the EC50 was 68 nM and the MEC was 10.0 nM.
In the same order, the values of `CCC(=O)N1CCC(c2ccc(-c3ccc(Cl)cc3N3CCCC(n4ncc(C(=O)O)c4C(F)F)C3)cc2)CC1` (single isomer, unassigned; enantiomer 2) [Example 56, 1-{1-[4-Chloro-4′-(1-propanoylpiperidin-4-yl)[biphenyl]-2-yl]piperidin-3-yl}-5-(difluoromethyl)-1H-pyrazole-4-carboxylic acid hydrochloride (Enantiomer 2)] are 1.5 nM and 1.0 nM.
On the same counts, the results for `O=C(O)c1cnn(C2CCCN(c3cc(Cl)ccc3-c3ccc(N4CCN(CC5CC(F)(F)C5)CC4)cc3)C2)c1C(F)F` (single isomer, unassigned; enantiomer 1) [Example 15, 1-[1-(4-Chloro-4′-{4-[(3,3-difluorocyclobutyl)methyl]piperazin-1-yl}[biphenyl]-2-yl)piperidin-3-yl]-5-(difluoromethyl)-1H-pyrazole-4-carboxylic acid hydrochloride (Enantiomer 1)] are 6.7 nM and 0.6 nM.
As for `O=C(O)c1cnn(C2CCCN(c3cc(Cl)ccc3-c3ccc(N4CCN(C5CC5)CC4)cc3)C2)c1C(F)F` (single isomer, unassigned; enantiomer 2) [Example 9, 1-{1-[4-Chloro-4′-(4-cyclopropylpiperazin-1-yl)[biphenyl]-2-yl]piperidin-3-yl}-5-(difluoromethyl)-1H-pyrazole-4-carboxylic acid hydrochloride (Enantiomer 2)], the concentration giving a half-maximal response (EC50) amounted to 36.5 nM and the MEC is 3.0 nM.
`O=C(O)c1cnn(C2CCCN(c3cc(Cl)ccc3-c3ccc(N4CCN(CC5CC5C(F)(F)F)CC4)cc3)C2)c1C(F)F` (mixture of isomers) [Example 38, 1-{1-[4-Chloro-4′-(4-{[cis-2-(trifluoromethyl)cyclopropyl]methyl}piperazin-1-yl) [biphenyl]-2-yl]piperidin-3-yl}-5-(difluoromethyl)-1H-pyrazole-4-carboxylic acid hydrochloride (Diastereoisomeric Mixture 1)]: the EC50 came to 7.1 nM and the MEC came out at 1.0 nM.

The values above are taken from patent US20240101528A1, “SUBSTITUTED PYRAZOLO PIPERIDINE CARBOXYLIC ACIDS” (BAYER AKTIENGESELLSCHAFT, priority 2020, published 2024).
